Like-named read-outs stand apart in the source and are kept apart here. Each block holds one compound with its values, some of them ahead of it.
Legend:
VIPR2 [1] = molecular target: T1, VIPR2 (Homo sapiens, UniProt P41587); assay: BRET-based VIPR2 activation assay (CAMYEL cAMP sensor, CHO cells, VIP background); assay type: cell-based
T1 sequence (P41587 24-438): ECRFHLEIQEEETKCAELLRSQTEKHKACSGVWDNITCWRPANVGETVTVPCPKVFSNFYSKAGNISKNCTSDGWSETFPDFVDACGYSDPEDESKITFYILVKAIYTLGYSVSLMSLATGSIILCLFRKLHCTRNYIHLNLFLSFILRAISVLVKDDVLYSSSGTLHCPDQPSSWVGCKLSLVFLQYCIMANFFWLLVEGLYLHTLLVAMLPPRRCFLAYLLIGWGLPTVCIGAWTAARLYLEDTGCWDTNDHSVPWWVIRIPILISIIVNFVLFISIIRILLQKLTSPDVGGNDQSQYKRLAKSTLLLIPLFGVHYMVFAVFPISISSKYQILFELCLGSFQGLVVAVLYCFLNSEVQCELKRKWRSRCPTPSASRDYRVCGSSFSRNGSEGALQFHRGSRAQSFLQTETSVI
Description: In such a system, a detector cell is used which expresses both the VIPR2 receptor and “CAMYEL,” a YFP-Epac-RLuc8 BRET sensor construct. This construct includes Epac1, a guanine nucleotide exchange factor activated by direct binding of cAMP, fused with an enhanced YFP and Renilla luciferase 8 (Rluc8) allowing BRET upon cAMP-induced conformational changes (Jiang et al., 2007, J Biol Chem. 282:10576-10584). In response to elevated cAMP levels, there is a conformational change in Epac and therefore a change in the proximity of the fused chromophores, Rluc8 and YFP, resulting in measurable energy transfer. Coexpression of this BRET construct with VIPR2, optionally tagged at the N-terminus with a signal peptide and FLAG epitope (SF-VIPR2), for example in HEK293 cells, allows for detection of a VIPR2-specific response to cAMP. BRET readout may be calculated by quantifying the ratio of the light emitted by the acceptor, YFP (λ=525 nm), over the emission from the donor, RLuc8 (λ=485 nm). The proximity of the donor and acceptor, and therefore the BRET ratio, decreases in the presence of cAMP. In non-limiting specific embodiments, a stable cell line may be generated for this assay using the Flp-In T-Rex system in HEK293 cells. This system allows site-specific single copy integration of the gene of interest and control of expression levels using the Tet-repressor site making receptor expression tetracycline-inducible. For example, a CAMYEL and VIPR2 expressing line may be induced with 0.01 μg/ml tetracycline, then, 24 hours later cells may be collected and distributed into 96-well plates. After treatment with candidate inhibitor compound, for example at 5, 1 and 0.5 μM concentrations, cells may be incubated with the light emitting luciferin, coelenterazine H, for 5 min and incubated for 5 min with VIP at increasing concentrations, for example ranging from […] to 10 μM. The fluorescence and luminescence may then be quantified, for example using a PHERAstar (BMG) plate reader. […] Alternatively, analogous experiments may be performed using human cells harvested from a patient having a VIPR2 copy number variation, for example (but not by way of limitation) pluripotent stem cells prepared from such a patient and then transfected with a CAMYEL construct.
Numerous cellular assays were developed that were able to detect VIP responses absent of interference from non-specific vasopressin receptors using this CHO based system. VIPR2 is a Gs coupled receptor. Activation of VIPR2 by VIP leads to both an elevation in cAMP signaling and the recruitment of β-arrestin. A variety of combinations can be transiently transfect into these CHO cells for the assessment of cellular responses to VIP. For the BRET readout CHO cell lines expressing an YFP-Epac-RLuc8 (CAMYEL) BRET sensor were used to detect changes in cAMP. This construct includes Epac1, a guanine nucleotide exchange factor activated by direct binding of cAMP, fused to an enhanced YFP and RLuc8 allowing a change in BRET upon cAMP-induced conformational changes. The key for medium to high throughput screening assays is the use of stable cell lines allowing the continuous assaying of multiple compounds with the ability to generate large numbers of cells for rapid use. In these lines VIPR2 was expressed as one of the stable cell lines assays. This was introduced into the CHO-Flp-IN to allow the generation of isogenic stable cell lines expressing high levels of VIPR2 under control of the CMV promoter. This has been introduced into this line together with the CAMYEL construct previously described. This allows for detection of VIPR2-specific responses to cAMP. EYFP fluorescence and RLuc8 luminescence is quantified in the presence of 5 μM light-emitting luciferin, coelenterazine H, using a PHERAstar (BMG) plate reader. BRET is calculated by quantifying the ratio of the light emitted by the acceptor, YFP (λ=525 nm), over the emission from the donor, RLuc8 (λ=485 nm).
3. […]

VIPR2 [2] = molecular target: T1, VIPR2; assay: % Activity: inhibition of VIP-induced cAMP elevation and β-arrestin recruitment (Table 2); assay type: cell-based; set-up: expressed in transfected cells; host or cells: HEK293 cells transfected with VIPR2 in pCDNA3.1 (as described)
Summary of the method: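 cAMP: HEK293 stably expressing hVIPR2, inhibitor plus VIP 30 min, cAMP by HTRF (665/620 nm ratio ×10,000). β-arrestin: HEK293 with β-arrestin2-β-gal-EA, transiently transfected with VIPR2-ProLink; inhibitor 2 h at 37° C, enzyme complementation read by luminescence.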

PAC1 = molecular target: T2, PAC1 (Homo sapiens, UniProt P41586); settings: Chu et al., 2010; cited from earlier work
T2 sequence (P41586 21-468): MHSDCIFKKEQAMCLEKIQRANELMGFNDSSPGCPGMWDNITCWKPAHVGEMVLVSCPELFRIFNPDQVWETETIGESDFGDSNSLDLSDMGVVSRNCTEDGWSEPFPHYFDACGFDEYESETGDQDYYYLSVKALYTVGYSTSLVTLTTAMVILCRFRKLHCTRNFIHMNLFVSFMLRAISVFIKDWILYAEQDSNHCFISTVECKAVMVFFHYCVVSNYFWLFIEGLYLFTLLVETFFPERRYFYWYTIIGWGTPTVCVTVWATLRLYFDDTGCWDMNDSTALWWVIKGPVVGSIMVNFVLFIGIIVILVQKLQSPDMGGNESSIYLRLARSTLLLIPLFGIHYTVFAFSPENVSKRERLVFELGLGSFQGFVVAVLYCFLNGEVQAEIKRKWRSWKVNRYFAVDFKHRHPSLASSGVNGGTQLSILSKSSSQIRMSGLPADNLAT

VPAC1 = molecular target: T3, VPAC1 (Homo sapiens, UniProt P32241); settings: Chu et al., 2010; cited from earlier work
T3 sequence (P32241 31-457): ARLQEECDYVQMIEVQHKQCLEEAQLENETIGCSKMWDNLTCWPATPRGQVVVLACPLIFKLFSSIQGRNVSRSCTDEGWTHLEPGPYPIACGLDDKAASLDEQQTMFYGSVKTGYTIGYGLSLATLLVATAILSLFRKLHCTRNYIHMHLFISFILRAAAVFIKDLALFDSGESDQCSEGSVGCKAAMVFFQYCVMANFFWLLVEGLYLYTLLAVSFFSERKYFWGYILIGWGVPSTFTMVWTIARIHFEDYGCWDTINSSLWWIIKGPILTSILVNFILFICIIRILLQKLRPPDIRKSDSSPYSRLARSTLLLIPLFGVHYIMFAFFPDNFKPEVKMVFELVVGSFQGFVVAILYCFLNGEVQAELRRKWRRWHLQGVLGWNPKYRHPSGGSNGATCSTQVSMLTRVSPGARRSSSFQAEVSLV

VIPR2 [3] = molecular target: T1, VIPR2; assay: Inhibition of VIP-induced β-arrestin recruitment (% Activity Arrestin); assay type: cell-based; set-up: expressed in transfected cells; host or cells: HEK293 cells transfected with VIPR2 in pCDNA3.1 (as described); settings: Batch 1
Summary of the method: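 HEK293 cells stably expressing β-arrestin2–β-gal EA, transiently transfected with ProLink-tagged hVIPR2, plated overnight; inhibitor added for 2 h at 37 °C, 5% CO2. Receptor–arrestin complementation read by chemiluminescence after 5 min–1 h at room temperature; inhibition of VIP-induced recruitment reported as % activity.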

VIPR2 [4] = molecular target: T1, VIPR2; assay: Inhibition of VIP-induced cAMP elevation (% Activity cAMP); assay type: cell-based; set-up: expressed in transfected cells; host or cells: HEK293 cells transfected with VIPR2 in pCDNA3.1 (as described); settings: Batch 1
Summary of the method: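 HEK293 cells stably transfected with human VIPR2 were incubated with inhibitor and VIP for 30 min, then cAMP was detected by HTRF after at least 1 h at room temperature. The 665/620 nm ratio ×10,000 was calculated.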

[5] = Table 3, read-out: IC50 (from BRET)

IC50 (VIPR2 [1]; Table 1, read-out: IC50): 0.206 µM
IC50 (VIPR2 [1]; [5]): 33.7 µM
SMILES: O=C(N[C@H]1c2ccccc2C[C@H]1O)[C@H](Cc1ccccc1)C[C@H](O)CNS(=O)(=O)c1ccc2c(c1)OCCO2 [Compound X109]

IC50 (VIPR2 [1]; Table 4, read-out: IC50): 28.2 µM
SMILES: CO[C@H]1Cc2ccccc2[C@@H]1NC(=O)[C@H](Cc1ccccc1)C[C@H](O)CNS(=O)(=O)c1ccc2c(c1)OCCO2 [Compound X135]

IC50 (VIPR2 [1]; Table 1, read-out: IC50): 2.16 µM
IC50 (VIPR2 [1]; [5]): 3.81 µM
SMILES: O=C(N[C@H]1c2ccccc2C[C@H]1O)[C@H](Cc1ccccc1)C[C@H](O)CNS(=O)(=O)c1ccc2c(c1)OCO2 [Compound X110]

% Activity (VIPR2 [2]): 84.52%
IC50 (VIPR2 [1]; Table 1, read-out: IC50): 1.3 µM
SMILES: O=C(N[C@H]1c2ccccc2C[C@H]1O)[C@H](Cc1ccccc1)C[C@H](O)CNS(=O)(=O)c1ccc([N+](=O)[O-])cc1 [Ref C1, reference compound]

IC50 (VIPR2 [1]; Table 1, read-out: IC50): 1.13 µM
IC50 (VIPR2 [1]; [5]): 45.8 µM
SMILES: CCc1ccc(S(=O)(=O)NC[C@@H](O)C[C@@H](Cc2ccccc2)C(=O)N[C@H]2c3ccccc3C[C@H]2O)cc1 [Compound X115]

IC50 (VIPR2 [1]; Table 1, read-out: IC50): 0.28 µM
IC50 (VIPR2 [1]; [5]): 2.02 µM
SMILES: O=C(N[C@H]1c2ccccc2C[C@H]1O)[C@H](Cc1ccccc1)C[C@H](O)CNS(=O)(=O)c1ccc(Cl)cc1 [Compound X106]

VIPR2 inhibition in BRET-based assay (in words) (VIPR2 [1]; FIG. 1C, FIG. 5): rightward shift
SMILES: O=C(N[C@H]1c2ccccc2C[C@H]1O)[C@H](Cc1ccccc1)C[C@H](O)CNS(=O)(=O)c1ccc([N+](=O)[O-])cc1 [Compound 1]
agonist or antagonist activities for PAC1 (PAC1): no detectable agonist or antagonist activities
agonist or antagonist activities for VPAC1 (VPAC1): no detectable agonist or antagonist activities

IC50 (VIPR2 [1]; [5]): 40.6 µM
SMILES: CC(O)c1ccc(S(=O)(=O)NC[C@@H](O)C[C@@H](Cc2ccccc2)C(=O)N[C@H]2c3ccccc3C[C@H]2O)cc1 (some centres unmarked) [Compound X107]

IC50 (VIPR2 [1]; Table 4, read-out: IC50): 76.2 µM
SMILES: CO[C@@H]1Cc2ccccc2[C@@H]1NC(=O)[C@H](Cc1ccccc1)C[C@H](O)CNS(=O)(=O)c1ccc(C(C)=O)cc1 [Compound X124]

IC50 (VIPR2 [1]; [5]): 6.03 µM
SMILES: O=C(N[C@H]1c2ccccc2C[C@H]1O)[C@H](Cc1ccccc1)C[C@H](O)CNS(=O)(=O)c1ccc(F)cc1 [Compound X105]

IC50 (VIPR2 [1]; [5]): 10 µM
SMILES: O=C(N[C@H]1c2ccccc2C[C@H]1O)[C@H](Cc1ccccc1)C[C@H](O)CNS(=O)(=O)c1ccc2c(c1)CCC2 [Compound X108]

IC50 (VIPR2 [1]; Table 4, read-out: IC50): 13.3 µM
SMILES: CO[C@@H]1Cc2ccccc2[C@@H]1NC(=O)[C@H](Cc1ccccc1)C[C@H](O)CNS(=O)(=O)c1ccc(Cl)cc1 [Compound X126]

inhibition at 0.5 µM (VIPR2 [3]; 0.5 μM): -11.8%
inhibition at 1 µM (VIPR2 [3]; 1 μM): -10.7%
inhibition at 5 µM (VIPR2 [3]; 5 μM): -16.3%
% Activity (VIPR2 [2]): −8.6%
inhibition at 0.5 µM (VIPR2 [4]; 0.5 μM): 0.7%
inhibition at 1 µM (VIPR2 [4]; 1 μM): 2.6%
inhibition at 5 µM (VIPR2 [4]; 5 μM): -0.9%
SMILES: CC(C)C(=O)NC[C@@H](O)C[C@@H](Cc1ccccc1)C(=O)N[C@H]1c2ccccc2C[C@H]1O [Compound A13]
